Measurements as given in patent publication EP0289229A1, “Antiviral combinations” (THE WELLCOME FOUNDATION LIMITED, priority 1987, dated 1988).

How the values were obtained:
[1] = test system: herpes simplex type 1 (KOS strain); assay: Plaque reduction assay in Vero cells; assay type: cell-based; conditions: HSV-1 KOS, three days
Description: Antiviral activity was determined using a plaque reduction assay. Petri plates were seeded with Vero cells which were then allowed to grow to confluency. Each plate was then infected with a fixed number of plaque forming units (abut 100-500) of herpes simplex type 1 (KOS strain). The inhibitors, either alone or in the indicated combinations, were dissolved to give the indicated concentration in minimal essential medium containing 2% heat inactivated fetal calf serum and 0.5% human immune serum globulin: One hour after infection the solutions (10 ml per plate) were added to the cultures. Three days later the cultures were formalin-fixed and stained with crystal violet, and the plaques were counted.

[2] = test system: Friend Leukemia Virus (FLV); assay: Anti-Friend Leukemia Virus plaque inhibition in FG-10 cells; assay type: cell-based; conditions: FG-10 cells infected with FLV; compound added one hour after infecting; 3 + 3 days incubation; read-out: IC50 (concentration giving 50% inhibition of plaques)
Description: The enhancement of the Anti-Friend Leukemia Virus (FLV) activity of zidovudine by bacterial thymidine phosphorylase is shown in Table 1. FG-10 cells were used seeded on a plate one day before they were infected with FLV. One hour after infecting, known concentrations of the test compound or combination were added. The plates were incubated for 3 days, the media replaced with fresh McCoy's 5A media and incubated another 3 days.

Compound	Average Plaque Count ([1]; Conc. 0.1 μM)	Average Plaque Count ([1]; Conc. 0.25 μM)	Average Plaque Count ([1]; Conc. 0.5 μM)	Average Plaque Count ([1]; Conc. 1.0 μM)	Average Plaque Count ([1]; Conc. 2.5 μM)	Average Plaque Count ([1]; Conc. 5.0 μM)	Average Plaque Count ([1]; Conc. 7.5 μM)	Average Plaque Count ([1]; Conc. 10 μM)	inhibition at 0.1 µM ([1]; Human alphaherpesvirus 1, 72 h, Conc. 0.1 μM)	inhibition at 0.25 µM ([1]; Human alphaherpesvirus 1, 72 h, Conc. 0.25 μM)	inhibition at 0.5 µM ([1]; Human alphaherpesvirus 1, 72 h, Conc. 0.5 μM)	inhibition at 1 µM ([1]; Human alphaherpesvirus 1, 72 h, Conc. 1.0 μM)	inhibition at 2.5 µM ([1]; Human alphaherpesvirus 1, 72 h, Conc. 2.5 μM)	inhibition at 5 µM ([1]; Human alphaherpesvirus 1, 72 h, Conc. 5.0 μM)	inhibition at 7.5 µM ([1]; Human alphaherpesvirus 1, 72 h, Conc. 7.5 μM)	inhibition at 10 µM ([1]; Human alphaherpesvirus 1, 72 h, Conc. 10 μM)	IC50 [2]
Nc1nc2c(ncn2COCCO)c(=O)[nH]1 [Acyclovir, 9-[(2-hydroxyethoxy)methyl]guanine]	316.5	298	290.5	230	182	88	54	34.5	11.6%	16.7%	19%	35.8%	49.2%	75.4%	84.9%	90.4%	–
Cc1cn([C@H]2C[C@H](N=[N+]=[N-])[C@@H](CO)O2)c(=O)[nH]c1=O [Zidovudine, 3′-azido-3′-deoxythymidine]	–	–	–	–	–	–	–	–	–	–	–	–	–	–	–	–	5 nM
